One assay deals with AGEs. Conditions: studies in rats, beagles (oral) and mice, CN200610002391.6; cited from earlier work.
Assay [1] deals with NaCl treated diabetic rats modeled with heart failure. As to the kind of experiment: Chronic heart failure, first batch, ultrasonic cardiogram evaluation. To be noted: 10th week of administration; valsartan 10 mg/kg, compound A 18 mg/kg ig. It counts as in vivo, rat. How it is done: The pharmacodynamic evaluation was conducted by using a noninvasive ultrasonic cardiogram method.
Evaluation indexes: (1) morphology indexes: left ventricular posterior wall dimensions (LVPWd), left ventricular diastasis internal diameter (LVDd), end systolic diameter (LVDs); (2) functional indexes: ejection fraction (EF), shortening fraction (FS), ventricular early blood flow filling rate (E), atrial filling rate (A) and ratio of E/A; Doppler tissue image; at cardiac apical four chamber view, the valve ring of anterior mitral valve was used as sampling point, peak early diastolic velocity (Ea peak), peak late diastolic velocity (Aa peak), and Ea/Aa ratio reflected the systolic and diastolic motion of the whole left ventricle.
SPSS statistic software was used to analyze and treat data, and all data were expressed in mean±standard deviation (Mean±SD).

On to `Cc1csc[n+]1CC(=O)OCc1ccccc1.[Br-]` [3-benzyloxycarbonylmethyl-4-methyl-thiazole-3-bromide], for which the “breaking effect on AGEs” value in the assay on AGEs is reported as “excellent breaking effect on AGEs”.
As for `CCCCC(=O)N(Cc1ccc(-c2ccccc2-c2nnn[nH]2)cc1)[C@H](C(=O)O)C(C)C` [valsartan, reference compound], in assay [1], the “LVDd and LVDs vs model” value was “slight decrease”; the PWd vs model result is reported as “slight increase”.

The values above are taken from US8338616B2, “Thiazoliums and their use for treating protein aging associated diseases” (Beijing Molecule Science And Technology Co., Ltd., priority 2008, dated 2012).
